Like-named read-outs stand apart in the source and are kept apart here.
Key:
[1] = Method: Next, the solubility of lenalidomide H1 was determined in silicone polymer-based pressure sensitive adhesives and acrylic polymer-based pressure sensitive adhesives. Pressure sensitive adhesive polymers are the major component of the pressure sensitive adhesives matrix patches and typically constitute 50%-85% of the formulation.
[2] = FIG. 10
Method: In vitro permeability of lenalidomide through human cadaver skin was conducted using in vitro franz diffusion cells to identify potential permeation enhancers for lenalidomide. Donor compartment was loaded with Lenalidomide solution or gel.
Lenalidomide H1 solutions were prepared in following different solvents Lactic acid, Dimethyl sulfoxide, NMP, Levulinic acid, Super refined PEG 400, Tween 40, Polysorbate 80.
Lenalidomide gels were prepared using a following solvent system composition (Table 7). Gels were made with 10 different permeation enhancers.

Remark: listed apart in the source
[3] = cited from earlier work
[4] = cited from earlier work; remark: listed apart in the source
[5] = people with high-risk SMM, oral; cited from earlier work

## Nc1cccc2c1CN(C1CCC(=O)NC1=O)C2=O (stereo not drawn) [Lenalidomide H1]
[1]; in BIO-PSA 7-4202 (silicone PSA)
  Lenalidomide H1 solubility: Less than 0.5% W/W
[1]; in Duro-Tak 87-2052 (acrylic PSA)
  Lenalidomide H1 solubility: Less than 0.5% W/W
[1]; in Duro-Tak 87-2074 (acrylic PSA)
  Lenalidomide H1 solubility: Less than 0.5% W/W
[1]; in Duro-Tak 87-2194 (acrylic PSA)
  Lenalidomide H1 solubility: Less than 0.5% W/W
[1]; in Duro-Tak 87-2516 (acrylic PSA)
  Lenalidomide H1 solubility: approximately 0.5% W/W
[1]; in Duro-Tak 87-2852 (acrylic PSA)
  Lenalidomide H1 solubility: Less than 0.5% W/W
[1]; in Duro-Tak 87-4098 (acrylic PSA)
  Lenalidomide H1 solubility: Less than 0.5% W/W
[1]; in Duro-Tak 87-9301 (acrylic PSA)
  Lenalidomide H1 solubility: Less than 0.5% W/W
[2]; solution in Lactic acid
  rate of lenalidomide permeation: highest rate
[2]; solution in Levulinic acid
  rate of lenalidomide permeation: negligible permeation
[2]; solutions in NMP and DMSO
  rate of lenalidomide permeation: followed by NMP and DMSO
[2]; solutions in SR PEG 400, TWEEN 40, Polysorbate 80
  rate of lenalidomide permeation: insignificant to no permeation
Aquasolve HPMC-AS MF (0.25 G) + Solvent system Acetone:Methanol (1:1)
  Solubility: 1.2 % W/W
Eudragit + Solvent system Acetone:Methanol (1:1)
  Solubility: 0.9 % W/W
Kollidon 30 (0.5 G) + Solvent system Acetone:Methanol (1:1)
  Solubility: 2.2 % W/W
Kollidon 90 F (0.5 G) + Solvent system Acetone:Methanol (1:1)
  Solubility: 2.0 % W/W
Kollidon VA 64 (0.5 G) + Solvent system Acetone:Methanol (1:1)
  Solubility: 2.1 % W/W
Kollisolv P124 Geismer (0.27 G) + Solvent system Acetone:Methanol (1:1)
  Solubility: 0.9 % W/W
In Acetone
  Solubility: 0.2 % W/W
In Acetonitrile
  Solubility: 0.3 % W/W
In Dimethyl sulfoxide
  Solubility: 20.7 % W/W
In Ethanol 190 Proof
  Solubility: 0.2 % W/W
In Ethyl acetate
  Solubility: <0.1 % W/W
In Heptane
  Solubility: <0.1 % W/W
In Isooctadecanoic acid
  Solubility: <0.1 % W/W
In Lactic acid
  Solubility: 9.3 % W/W
In Lauryl Lactate
  Solubility: 0.1 % W/W
In Levulinic acid
  Solubility: 5.5 % W/W
In Methanol
  Solubility: 0.3 % W/W
In Methanol:Acetone (1:1)
  Solubility: 0.9 % W/W
In Methyl Laurate
  Solubility: <0.1 % W/W
In NMP
  Solubility: 29.3 % W/W
In Propylene Glycol
  Solubility: 0.4 % W/W
In Propylene Glycol monolaurate
  Solubility: <0.1 % W/W
In Super refined PEG 400
  Solubility: 1.6 % W/W
In Toluene
  Solubility: <0.1 % W/W

## Nc1cccc2c1CN(C1CCC(=O)NC1=O)C2=O (stereo not drawn) [Lenalidomide, 3-(4-amino-1-3-dihydro-1-oxo-2H-isoindol-2yl)-2,6-piperidinedione]
In DMSO, room temperature
  Solubility: 10-20%
In NMP, room temperature
  Solubility: about 30 % w/w
In esters
  Solubility: less than 0.5%
In glycols
  Solubility: less than 2%
In two organic acids, Lactic acid and levulinic acid
  Solubility: more than 5%
[3]
  solubility of the LLD in solution: 400 to 500 µg/mL
[4]
  log P: −0.4
[5]
  discontinued due to drug-related side effects: 40%
  three-year progression-free survival: 91%

Source: patent US20220395468A1, “Transdermal Drug Delivery Systems for Administration of a Therapeutically Effective Amount of Lenalidomide and Other Immunomodulatory Agents” (Starton Therapeutics, Inc., priority 2021, published 2022)
